# Results: patent US20190322676A1, “CERAMIDE GALACTOSYLTRANSFERASE INHIBITORS FOR THE TREATMENT OF DISEASE” (BioMarin Pharmaceutical Inc., priority 2016, published 2019)
# Molecular target: T1, human CGT (ceramide galactosyltransferase), CHO/CGT lysate (Homo sapiens, UniProt Q16880)
# T1 construct: Full-length human CGT cDNA was cloned into the BamH1/Xho1 site of pcDNA3.1 (+); expressed in transfected cells; host or cells: Chinese hamster ovary (CHO) cells; lysate prepared with M-PER
# T1 sequence (Q16880 21-541): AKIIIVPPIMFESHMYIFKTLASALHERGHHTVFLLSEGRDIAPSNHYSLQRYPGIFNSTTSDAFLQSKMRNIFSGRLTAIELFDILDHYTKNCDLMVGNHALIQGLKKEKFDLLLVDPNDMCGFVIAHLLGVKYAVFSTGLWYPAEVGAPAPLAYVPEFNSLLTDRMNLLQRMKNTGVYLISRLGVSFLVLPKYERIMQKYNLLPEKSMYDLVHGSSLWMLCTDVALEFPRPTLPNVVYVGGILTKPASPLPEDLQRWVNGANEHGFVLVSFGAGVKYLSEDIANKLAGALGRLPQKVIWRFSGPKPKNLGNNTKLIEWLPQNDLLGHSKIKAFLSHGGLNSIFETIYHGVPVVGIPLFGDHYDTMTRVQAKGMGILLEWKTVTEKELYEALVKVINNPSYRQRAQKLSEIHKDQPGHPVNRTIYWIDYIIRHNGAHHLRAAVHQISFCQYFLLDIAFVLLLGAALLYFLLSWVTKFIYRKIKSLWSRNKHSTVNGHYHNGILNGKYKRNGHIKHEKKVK
# Assay: CGT enzyme assay, RapidFire/MS/MS readout with 0.01% Tween added (Table 1 ranges with two asterisks **)
# Format: biochemical
# Settings: CGT enzymatic assay; range with two asterisks (**): RapidFire/MS/MS method with 0.01% Tween added
# Summary of the method: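 IC50s come from variable-slope dose-response fits of internal-standard-normalized C6-NBD-dihydro-galactosylceramide, measured by RapidFire/MS/MS (ESI negative). Reactions: 1 h, 37 °C, human CGT-expressing CHO lysate (4 μg), 0.001–50 μM compound, 10 μM NBD-dihydro-ceramide, 17.5 μM UDP-galactose, 0.5% DMSO, pH 7.2; 0.01% Tween 80 added for ** values.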
row,SMILES,IC50 [µM]
1,"NC1C2CCC1CN(C(=O)[C@H](NS(=O)(=O)c1ccc(OCC3CCCCC3)cc1)C(F)(F)c1ccc(-c3ccc(Cl)cc3)cc1)C2 (stereo partly drawn) [Compound 183-2, N-((S)-3-((1R,5S,8S)-8-amino-3-azabicyclo[3.2.1]octan-3-yl)-1-(4′-chloro-[1,1′-biphenyl]-4-yl)-1,1-difluoro-3-oxopropan-2-yl)-4-(cyclohexylmethoxy)benzenesulfonamide]",1 to 10
2,"N[C@H]1[C@@H]2CC[C@H]1CN(C(=O)[C@@H](NS(=O)(=O)c1ccc3cc(OC4CCCC4)ccc3c1)C(F)(F)c1ccc(-c3ccc(Cl)cc3)cc1)C2 [Compound 184-1, N-((R)-3-((1R,5S,8R)-8-amino-3-azabicyclo[3.2.1]octan-3-yl)-1-(4′-chloro-[1,1′-biphenyl]-4-yl)-1,1-difluoro-3-oxopropan-2-yl)-6-(cyclopentyloxy)naphthalene-2-sulfonamide]",1 to 10
3,"N[C@H]1[C@@H]2CC[C@H]1CN(C(=O)[C@H](NS(=O)(=O)c1ccc3cc(OC4CCCC4)ccc3c1)C(F)(F)c1ccc(-c3ccc(Cl)cc3)cc1)C2 [Compound 184-2, N-((S)-3-((1R,5S,8S)-8-amino-3-azabicyclo[3.2.1]octan-3-yl)-1-(4′-chloro-[1,1′-biphenyl]-4-yl)-1,1-difluoro-3-oxopropan-2-yl)-6-(cyclopentyloxy)naphthalene-2-sulfonamide]",1 to 10
4,"NC1CCN(C(=O)[C@@H](NS(=O)(=O)c2ccc(CCOC3CCCC3)cc2)C(F)(F)c2ccc(-c3ccc(Cl)cc3)cc2)CC1 [Compound 185-1, (R)-N-(3-(4-aminopiperidin-1-yl)-1-(4′-chloro-[1,1′-biphenyl]-4-yl)-1,1-difluoro-3-oxopropan-2-yl)-4-(2-(cyclopentyloxy)ethyl)benzenesulfonamide]",10 to 30
5,"NC1CCN(C(=O)[C@H](NS(=O)(=O)c2ccc(CCOC3CCCC3)cc2)C(F)(F)c2ccc(-c3ccc(Cl)cc3)cc2)CC1 [Compound 185-2, (S)-N-(3-(4-aminopiperidin-1-yl)-1-(4′-chloro-[1,1′-biphenyl]-4-yl)-1,1-difluoro-3-oxopropan-2-yl)-4-(2-(cyclopentyloxy)ethyl)benzenesulfonamide]",30 to 100
6,"N[C@H]1CCN(C(=O)[C@@H](NS(=O)(=O)c2ccc(OCC3CCCCC3)cc2)C(F)(F)c2ccc(Cl)cc2)C1 [Compound 186-1, N-((R)-3-((S)-3-aminopyrrolidin-1-yl)-1-(4-chlorophenyl)-1,1-difluoro-3-oxopropan-2-yl)-4-(cyclohexylmethoxy)benzenesulfonamide]",1 to 10
7,"N[C@H]1CCN(C(=O)[C@H](NS(=O)(=O)c2ccc(OCC3CCCCC3)cc2)C(F)(F)c2ccc(Cl)cc2)C1 [Compound 186-2, N-((S)-3-((S)-3-aminopyrrolidin-1-yl)-1-(4-chlorophenyl)-1,1-difluoro-3-oxopropan-2-yl)-4-(cyclohexylmethoxy)benzenesulfonamide]",30 to 100
8,"NC1CCN(C(=O)[C@@H](N(CC(F)(F)F)S(=O)(=O)c2ccc3cc(OC4CCCC4)ccc3c2)C(F)(F)c2ccc(Br)cc2)CC1 [Compound 187-1, (R)-N-(3-(4-aminopiperidin-1-yl)-1-(4-bromophenyl)-1,1-difluoro-3-oxopropan-2-yl)-6-(cyclopentyloxy)-N-(2,2,2-trifluoroethyl)naphthalene-2-sulfonamide]",30 to 100
9,"NC1CCN(C(=O)[C@H](N(CC(F)(F)F)S(=O)(=O)c2ccc3cc(OC4CCCC4)ccc3c2)C(F)(F)c2ccc(Br)cc2)CC1 [Compound 187-2, (S)-N-(3-(4-aminopiperidin-1-yl)-1-(4-bromophenyl)-1,1-difluoro-3-oxopropan-2-yl)-6-(cyclopentyloxy)-N-(2,2,2-trifluoroethyl)naphthalene-2-sulfonamide]",30 to 100

# Continued, values first:
row,IC50 [µM],SMILES
1,1 to 10,"O=C([C@@H](NS(=O)(=O)c1ccc2cc(OC3CCCC3)ccc2c1)C(F)(F)c1ccc(-c2ccc(Cl)cc2)cc1)N1CCNC2(CC2)C1 [Compound 188-1, (R)-N-(1-(4′-chloro-[1,1′-biphenyl]-4-yl)-1,1-difluoro-3-oxo-3-(4,7-diazaspiro[2.5]octan-7-yl)propan-2-yl)-6-(cyclopentyloxy)naphthalene-2-sulfonamide]"
2,30 to 100,"O=C([C@H](NS(=O)(=O)c1ccc2cc(OC3CCCC3)ccc2c1)C(F)(F)c1ccc(-c2ccc(Cl)cc2)cc1)N1CCNC2(CC2)C1 [Compound 188-2, (S)-N-(1-(4′-chloro-[1,1′-biphenyl]-4-yl)-1,1-difluoro-3-oxo-3-(4,7-diazaspiro[2.5]octan-7-yl)propan-2-yl)-6-(cyclopentyloxy)naphthalene-2-sulfonamide]"
3,1 to 10,"N[C@@H]1CCN(C(=O)[C@@H](NS(=O)(=O)c2ccc(OCC3CCCCC3)cc2)C(F)(F)c2ccc(Cl)cc2)C1 [Compound 189-1, N-((R)-3-((R)-3-aminopyrrolidin-1-yl)-1-(4-chlorophenyl)-1,1-difluoro-3-oxopropan-2-yl)-4-(cyclohexylmethoxy)benzenesulfonamide]"
4,10 to 30,"N[C@@H]1CCN(C(=O)[C@H](NS(=O)(=O)c2ccc(OCC3CCCCC3)cc2)C(F)(F)c2ccc(Cl)cc2)C1 [Compound 189-2, N-((S)-3-((R)-3-aminopyrrolidin-1-yl)-1-(4-chlorophenyl)-1,1-difluoro-3-oxopropan-2-yl)-4-(cyclohexylmethoxy)benzenesulfonamide]"
5,1 to 10,"COc1cc(C(F)(F)[C@H](NS(=O)(=O)c2ccc(OCC3CCCCC3)cc2)C(=O)N2C[C@H]3CNC[C@H]3C2)ccc1-c1ccc(Cl)cc1 [Compound 190-1, N-((R)-1-(4′-chloro-2-methoxy-[1,1′-biphenyl]-4-yl)-1,1-difluoro-3-((3aR,6aS)-hexahydropyrrolo[3,4-c]pyrrol-2(1H)-yl)-3-oxopropan-2-yl)-4-(cyclohexylmethoxy)benzenesulfonamide]"
6,30 to 100,"COc1cc(C(F)(F)[C@@H](NS(=O)(=O)c2ccc(OCC3CCCCC3)cc2)C(=O)N2C[C@H]3CNC[C@H]3C2)ccc1-c1ccc(Cl)cc1 [Compound 190-2, N-((S)-1-(4′-chloro-2-methoxy-[1,1′-biphenyl]-4-yl)-1,1-difluoro-3-((3aR,6aS)-hexahydropyrrolo[3,4-c]pyrrol-2(1H)-yl)-3-oxopropan-2-yl)-4-(cyclohexylmethoxy)benzenesulfonamide]"
7,< 1,"O=C([C@@H](NS(=O)(=O)c1ccc2cc(OC3CCCC3)ccc2c1)C(F)(F)c1ccc(-c2ccc(Cl)cc2)cc1)N1CCC12CNC2 [Compound 191-1, (R)-N-(1-(4′-chloro-[1,1′-biphenyl]-4-yl)-1,1-difluoro-3-oxo-3-(1,6-diazaspiro[3.3]heptan-1-yl)propan-2-yl)-6-(cyclopentyloxy)naphthalene-2-sulfonamide]"
8,1 to 10,"O=C([C@H](NS(=O)(=O)c1ccc2cc(OC3CCCC3)ccc2c1)C(F)(F)c1ccc(-c2ccc(Cl)cc2)cc1)N1CCC12CNC2 [Compound 191-2, (S)-N-(1-(4′-chloro-[1,1′-biphenyl]-4-yl)-1,1-difluoro-3-oxo-3-(1,6-diazaspiro[3.3]heptan-1-yl)propan-2-yl)-6-(cyclopentyloxy)naphthalene-2-sulfonamide]"
9,1 to 10,"O=C([C@@H](NS(=O)(=O)c1ccc2cc(OC3CCCC3)ccc2c1)C(F)(F)c1ccc(-c2ccc(Cl)cc2)cc1)N1CC[C@H]2CNC[C@H]21 [Compound 192-1, N-((R)-1-(4′-chloro-[1,1′-biphenyl]-4-yl)-1,1-difluoro-3-((3aS,6aS)-hexahydropyrrolo[3,4-b]pyrrol-1(2H)-yl)-3-oxopropan-2-yl)-6-(cyclopentyloxy)naphthalene-2-sulfonamide]"
10,10 to 30,"O=C([C@H](NS(=O)(=O)c1ccc2cc(OC3CCCC3)ccc2c1)C(F)(F)c1ccc(-c2ccc(Cl)cc2)cc1)N1CC[C@@H]2CNC[C@@H]21 [Compound 192-2, N-((S)-1-(4′-chloro-[1,1′-biphenyl]-4-yl)-1,1-difluoro-3-((3aR,6aR)-hexahydropyrrolo[3,4-b]pyrrol-1(2H)-yl)-3-oxopropan-2-yl)-6-(cyclopentyloxy)naphthalene-2-sulfonamide]"
11,< 1,"O=C([C@@H](NS(=O)(=O)c1ccc2cc(OC3CCCC3)ccc2c1)C(F)(F)c1ccc(-c2ccc(Cl)cc2)cc1)N1CC[C@@H]2CNC[C@@H]21 [Compound 192-3, N-((R)-1-(4′-chloro-[1,1′-biphenyl]-4-yl)-1,1-difluoro-3-((3aR,6aR)-hexahydropyrrolo[3,4-b]pyrrol-1(2H)-yl)-3-oxopropan-2-yl)-6-(cyclopentyloxy)naphthalene-2-sulfonamide]"
12,30 to 100,"O=C([C@H](NS(=O)(=O)c1ccc2cc(OC3CCCC3)ccc2c1)C(F)(F)c1ccc(-c2ccc(Cl)cc2)cc1)N1CC[C@H]2CNC[C@H]21 [Compound 192-4, N-((S)-1-(4′-chloro-[1,1′-biphenyl]-4-yl)-1,1-difluoro-3-((3aS,6aS)-hexahydropyrrolo[3,4-b]pyrrol-1(2H)-yl)-3-oxopropan-2-yl)-6-(cyclopentyloxy)naphthalene-2-sulfonamide]"
